Active and inactive are the calls of the source. The rule behind the calls is not given here.
Assays:
[1] = molecular target: Tubulin (Homo sapiens) (UniProt P68371+Q9H4B7+P0DPH7+P68366+Q13509+Q71U36+P04350+Q3ZCM7+P07437+P68363+Q9BQE3+Q6PEY2+Q13885+Q9BVA1+Q9BUF5); experiment: Inhibition of tubulin polymerization in human HT-29 cells assessed as downregulation of acetylated alpha-tubulin expression 50 to 200 nM incubated for 24 hrs by Western blot analysis; assay type: cell-based; details: dose 50-200 nM
[2] = test system: HT-29; experiment: Induction of cell cycle arrest in human HT-29 cells assessed as accumulation of cells at G2 phase at 50 nM incubated for 24 hrs by flow cytometry analysis (reference value: 13 %); assay type: functional
[3] = test system: HT-29; experiment: Antitumor activity against human HT-29 cells xenografted in BALB/c mouse assessed as reduction in Ki67 expression at 10 to 40 mg/kg, iv measured after 21 days by immunohistochemical analysis; assay type: functional, organism-based; details: dose 10-40 mg/kg, time 21.0 day
[4] = test system: HT-29; experiment: Antitumor activity against human HT-29 cells xenografted in BALB/c mouse assessed as reduction in CD31 expression at 10 to 40 mg/kg, iv measured after 21 days by immunohistochemical analysis; assay type: functional, organism-based; details: dose 10-40 mg/kg, time 21.0 day
[5] = test system: MDA-MB-231; experiment: cells; details: Homo sapiens, MDA-MB-231, 72 h
Description: Antiproliferative activity against human MDA-MB-231 cells assessed as cell viability incubated for 72 hrs by MTT assay

Compound: COc1ccc(N(C)c2nc(/C=C/c3cccc(OC)c3)nc3ccccc23)cc1
- inhibition [1]: Active
- Activity [2]: 17.8%
- Activity [3]: Active
- Activity [4]: Active
- IC50 [5]: 440 nM

— ChEMBL document CHEMBL6092217 (Eur J Med Chem, 2024)
